Results as given in patent publication US12258328B2, “6-membered heteroaryl-containing aminopyridine compounds as EGFR inhibitors” (YUHAN CORPORATION, priority 2021, dated 2025).
Where two headings read alike, the source gives them in different places.

Columns and labels:
EGFR del19/C797S = EGFR del19/C797S (Homo sapiens, UniProt P00533, C797S/DEL746-750); experiment: Biochemical EGFR kinase assay (Lance Ultra TR-FRET), double mutant del19/C797S
Method: (§1) Biochemical EGFR kinase assays were conducted using Lance Ultra time-resolved fluorescence resonance energy transfer (TR-FRET) technology from Perkin-Elmer. Compounds of the invention were initially diluted to 20 mM in 100% DMSO for storage and made into kinase buffer solution to create a compound concentration ranging from 0.003 μM and 10 μM.
(§2) Each kinase reactions were incubated at room temperature for 1 hour and then stopped by the addition of 4 μL of stop solution (10 mM EDTA). The specific Europium-labeled-anti-phosphopeptide antibody (PerkinElmer, AD0069) diluted in LANCE detection buffer was then added to a final concentration of 2 nM. After 60 minutes incubation at room temperature the LANCE signal was measured on an EnVision Multilabel Reader (Perkin-Elmer). Excitation wavelength was set at 320 nm and emission monitored at 615 nm (donor) and 665 nm (acceptor). The IC50 values were determined using GraphPad prism software (GraphPad Software, Inc., San Diego, CA, USA).

EGFR del19/T790M/C797S = EGFR del19/T790M/C797S (Homo sapiens, UniProt P00533, C797S/DEL746-750/T790M); experiment: Biochemical EGFR kinase assay (Lance Ultra TR-FRET), triple mutant del19/T790M/C797S
EGFR del19/T790M/C797S, sequence (P00533 with tags, fused parts or gaps DEL746-750/T790M/C797S): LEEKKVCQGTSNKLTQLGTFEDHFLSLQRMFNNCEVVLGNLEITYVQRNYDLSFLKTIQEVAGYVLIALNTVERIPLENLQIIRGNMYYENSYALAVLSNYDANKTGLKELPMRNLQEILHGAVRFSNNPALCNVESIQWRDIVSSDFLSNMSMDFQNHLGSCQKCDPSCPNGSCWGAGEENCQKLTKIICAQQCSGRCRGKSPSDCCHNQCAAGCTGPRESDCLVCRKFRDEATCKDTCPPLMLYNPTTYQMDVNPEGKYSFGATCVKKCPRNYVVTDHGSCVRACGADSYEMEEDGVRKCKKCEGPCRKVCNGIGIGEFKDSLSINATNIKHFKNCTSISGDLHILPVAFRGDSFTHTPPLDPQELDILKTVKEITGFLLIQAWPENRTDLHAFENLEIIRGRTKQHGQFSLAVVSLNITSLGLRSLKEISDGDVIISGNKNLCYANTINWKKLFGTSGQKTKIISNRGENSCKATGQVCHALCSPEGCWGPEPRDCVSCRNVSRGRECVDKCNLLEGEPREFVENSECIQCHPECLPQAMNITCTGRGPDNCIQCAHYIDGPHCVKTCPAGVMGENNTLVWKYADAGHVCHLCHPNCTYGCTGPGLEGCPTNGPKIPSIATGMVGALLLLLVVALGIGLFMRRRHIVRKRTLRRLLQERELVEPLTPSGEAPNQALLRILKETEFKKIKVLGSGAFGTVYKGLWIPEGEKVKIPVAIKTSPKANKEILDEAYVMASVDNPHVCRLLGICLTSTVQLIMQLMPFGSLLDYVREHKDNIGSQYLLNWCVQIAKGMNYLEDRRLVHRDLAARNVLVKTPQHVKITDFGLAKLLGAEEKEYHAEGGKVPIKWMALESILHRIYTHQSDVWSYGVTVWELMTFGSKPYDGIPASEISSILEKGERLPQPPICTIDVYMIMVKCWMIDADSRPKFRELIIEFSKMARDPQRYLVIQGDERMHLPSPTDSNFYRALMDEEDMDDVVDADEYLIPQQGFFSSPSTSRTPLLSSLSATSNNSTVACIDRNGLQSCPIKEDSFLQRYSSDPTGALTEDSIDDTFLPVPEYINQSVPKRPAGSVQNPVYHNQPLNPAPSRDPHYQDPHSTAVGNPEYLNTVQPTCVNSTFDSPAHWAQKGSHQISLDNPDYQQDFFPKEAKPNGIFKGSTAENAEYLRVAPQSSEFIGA
Method: as §1, §2

EGFR L858R/T790M/C797S = EGFR L858R/T790M/C797S (Homo sapiens, UniProt P00533, C797S/L858R/T790M); experiment: Biochemical EGFR kinase assay (Lance Ultra TR-FRET), triple mutant L858R/T790M/C797S
Method: as §1, §2

EGFR wildtype = EGFR wildtype (Homo sapiens, UniProt P00533); experiment: Biochemical EGFR kinase assay (Lance Ultra TR-FRET), wildtype
EGFR wildtype, sequence (P00533 25-1210): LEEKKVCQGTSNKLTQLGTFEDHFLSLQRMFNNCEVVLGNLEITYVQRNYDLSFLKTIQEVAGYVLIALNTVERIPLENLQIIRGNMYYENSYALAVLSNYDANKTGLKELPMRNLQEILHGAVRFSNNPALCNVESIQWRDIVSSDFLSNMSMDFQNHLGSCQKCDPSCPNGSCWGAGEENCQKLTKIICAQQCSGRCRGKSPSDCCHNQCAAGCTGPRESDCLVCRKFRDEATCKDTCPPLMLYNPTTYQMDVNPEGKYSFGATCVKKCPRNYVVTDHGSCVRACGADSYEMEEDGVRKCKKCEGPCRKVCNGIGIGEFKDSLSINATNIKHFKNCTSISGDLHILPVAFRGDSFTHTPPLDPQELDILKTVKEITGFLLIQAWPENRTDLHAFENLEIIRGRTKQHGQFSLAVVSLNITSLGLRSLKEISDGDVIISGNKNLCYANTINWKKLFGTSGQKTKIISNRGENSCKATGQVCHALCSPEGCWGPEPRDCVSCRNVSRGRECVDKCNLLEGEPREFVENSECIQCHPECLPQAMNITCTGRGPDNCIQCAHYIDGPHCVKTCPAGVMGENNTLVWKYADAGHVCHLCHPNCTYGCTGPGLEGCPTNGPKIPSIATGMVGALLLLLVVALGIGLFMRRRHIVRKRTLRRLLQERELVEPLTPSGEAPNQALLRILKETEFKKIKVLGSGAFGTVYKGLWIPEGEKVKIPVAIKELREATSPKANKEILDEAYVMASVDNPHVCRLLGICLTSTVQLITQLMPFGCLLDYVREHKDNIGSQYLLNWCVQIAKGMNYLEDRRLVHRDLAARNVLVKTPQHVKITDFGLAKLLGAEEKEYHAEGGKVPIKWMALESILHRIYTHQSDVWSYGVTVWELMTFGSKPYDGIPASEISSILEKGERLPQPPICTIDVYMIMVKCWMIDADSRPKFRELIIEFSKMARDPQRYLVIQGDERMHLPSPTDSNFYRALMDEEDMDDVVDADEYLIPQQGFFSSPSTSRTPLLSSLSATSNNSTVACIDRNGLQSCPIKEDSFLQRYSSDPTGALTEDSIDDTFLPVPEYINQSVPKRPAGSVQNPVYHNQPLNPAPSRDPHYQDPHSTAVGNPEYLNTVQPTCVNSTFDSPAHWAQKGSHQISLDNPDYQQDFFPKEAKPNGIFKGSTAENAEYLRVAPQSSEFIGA
Method: as §1, §2

EGFR L858R/C797S = EGFR L858R/C797S (Homo sapiens, UniProt P00533, C797S/L858R); experiment: Biochemical EGFR kinase assay (Lance Ultra TR-FRET), double mutant L858R/C797S
EGFR L858R/C797S, sequence (P00533 25-1210 C797S/L858R): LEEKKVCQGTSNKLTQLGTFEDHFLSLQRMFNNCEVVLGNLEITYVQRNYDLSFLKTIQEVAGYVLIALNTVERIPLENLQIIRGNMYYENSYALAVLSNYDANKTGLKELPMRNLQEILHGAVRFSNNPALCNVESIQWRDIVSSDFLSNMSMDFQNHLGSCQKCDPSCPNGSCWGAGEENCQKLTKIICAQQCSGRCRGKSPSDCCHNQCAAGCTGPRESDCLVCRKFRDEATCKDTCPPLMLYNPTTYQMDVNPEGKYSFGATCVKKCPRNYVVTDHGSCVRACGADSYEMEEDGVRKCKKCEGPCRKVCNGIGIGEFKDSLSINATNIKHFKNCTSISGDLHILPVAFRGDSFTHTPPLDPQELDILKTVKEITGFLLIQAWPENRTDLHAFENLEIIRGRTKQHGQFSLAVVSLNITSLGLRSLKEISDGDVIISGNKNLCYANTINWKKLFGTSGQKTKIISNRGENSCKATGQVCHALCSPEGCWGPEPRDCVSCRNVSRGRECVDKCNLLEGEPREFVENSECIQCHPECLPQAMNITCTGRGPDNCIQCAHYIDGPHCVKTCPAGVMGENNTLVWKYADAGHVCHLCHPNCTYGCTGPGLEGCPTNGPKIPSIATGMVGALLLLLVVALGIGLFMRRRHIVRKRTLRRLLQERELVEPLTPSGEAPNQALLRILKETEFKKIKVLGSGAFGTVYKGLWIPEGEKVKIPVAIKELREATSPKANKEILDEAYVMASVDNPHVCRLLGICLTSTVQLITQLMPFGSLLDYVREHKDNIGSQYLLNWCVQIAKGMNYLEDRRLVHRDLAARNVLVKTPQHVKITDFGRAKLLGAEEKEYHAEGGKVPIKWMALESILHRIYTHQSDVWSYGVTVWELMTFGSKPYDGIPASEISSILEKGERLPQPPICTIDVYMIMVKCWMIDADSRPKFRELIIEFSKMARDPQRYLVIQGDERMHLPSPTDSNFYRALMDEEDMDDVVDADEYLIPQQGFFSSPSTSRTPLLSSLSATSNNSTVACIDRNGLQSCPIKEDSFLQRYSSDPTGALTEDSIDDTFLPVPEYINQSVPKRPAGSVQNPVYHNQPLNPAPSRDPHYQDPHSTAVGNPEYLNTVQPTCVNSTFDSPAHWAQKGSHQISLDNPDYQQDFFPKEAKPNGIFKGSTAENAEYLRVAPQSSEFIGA
Method: as §1, §2

[1] = IC50 del19/C797S (nM) 100 μM ATP, 100 μM ATP
[2] = Km ATP, read-out: IC50 del19/C797S (nM) Km ATP
[3] = IC50 del19/T790M/C797S (nM) 100 μM ATP, 100 μM ATP
[4] = IC50 L858R/T790M/C797S (nM) 100 μM ATP, 100 μM ATP
[5] = Km ATP, read-out: IC50 L858R/T790M/C797S (nM) Km ATP
[6] = IC50 WT (nM) 100 μM ATP, 100 μM ATP
[7] = Km ATP, read-out: IC50 WT (nM) Km ATP
[8] = IC50 L858R/C797S (nM) 100 μM ATP, 100 μM ATP
[9] = Km ATP, read-out: IC50 L858R/C797S (nM) Km ATP
[10] = Km ATP, read-out: IC50 del19/T790M/C797S (nM) Km ATP

EGFR del19/C797S, sequence (P00533 with tags, fused parts or gaps DEL746-750/C797S): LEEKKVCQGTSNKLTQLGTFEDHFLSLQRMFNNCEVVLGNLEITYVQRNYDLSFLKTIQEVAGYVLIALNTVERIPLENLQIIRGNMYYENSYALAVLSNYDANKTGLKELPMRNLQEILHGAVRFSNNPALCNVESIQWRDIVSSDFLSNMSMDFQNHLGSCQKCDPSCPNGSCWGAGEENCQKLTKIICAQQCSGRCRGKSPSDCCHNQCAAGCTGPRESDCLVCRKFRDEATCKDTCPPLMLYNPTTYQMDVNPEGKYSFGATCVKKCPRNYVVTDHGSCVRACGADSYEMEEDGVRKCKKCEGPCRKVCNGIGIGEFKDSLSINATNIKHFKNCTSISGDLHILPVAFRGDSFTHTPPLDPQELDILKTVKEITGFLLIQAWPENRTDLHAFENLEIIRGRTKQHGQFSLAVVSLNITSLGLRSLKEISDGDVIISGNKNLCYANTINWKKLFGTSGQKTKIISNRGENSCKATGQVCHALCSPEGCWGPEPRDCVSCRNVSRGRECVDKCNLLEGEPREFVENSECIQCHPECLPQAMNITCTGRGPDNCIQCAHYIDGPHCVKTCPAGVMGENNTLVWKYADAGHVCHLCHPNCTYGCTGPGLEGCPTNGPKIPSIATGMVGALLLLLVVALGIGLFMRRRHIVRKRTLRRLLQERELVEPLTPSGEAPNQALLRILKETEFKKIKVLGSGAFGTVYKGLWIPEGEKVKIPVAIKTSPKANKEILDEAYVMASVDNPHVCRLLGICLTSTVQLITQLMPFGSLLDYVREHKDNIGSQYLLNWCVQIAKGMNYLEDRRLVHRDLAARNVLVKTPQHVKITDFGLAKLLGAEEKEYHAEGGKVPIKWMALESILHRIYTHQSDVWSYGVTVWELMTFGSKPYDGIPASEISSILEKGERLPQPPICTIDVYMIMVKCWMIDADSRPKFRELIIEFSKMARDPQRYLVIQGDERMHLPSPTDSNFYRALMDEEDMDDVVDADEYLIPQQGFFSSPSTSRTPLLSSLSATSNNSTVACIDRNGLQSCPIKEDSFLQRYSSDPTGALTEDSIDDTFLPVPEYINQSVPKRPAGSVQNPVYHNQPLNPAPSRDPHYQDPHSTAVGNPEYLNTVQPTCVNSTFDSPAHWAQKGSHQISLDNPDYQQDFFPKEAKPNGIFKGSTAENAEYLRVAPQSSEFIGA

SMILES | IC50 (EGFR del19/C797S; [1]) | IC50 (EGFR del19/C797S; [2]) | IC50 (EGFR del19/T790M/C797S; [3]) | IC50 (EGFR L858R/T790M/C797S; [4]) | IC50 (EGFR L858R/T790M/C797S; [5]) | IC50 (EGFR wildtype; [6]) | IC50 (EGFR wildtype; [7]) | IC50 (EGFR L858R/C797S; [8]) | IC50 (EGFR L858R/C797S; [9]) | IC50 (EGFR del19/T790M/C797S; [10])
CN1CCN(Cc2ccc(-c3cnc(Nc4ccnc(-c5cnn(S(=O)(=O)C6CC6)c5)n4)cc3N[C@H]3CC[C@@](C)(O)CC3)nc2)CC1 [Example 9, (1s,4s)-4-((6′-((2-(1-(Cyclopropylsulfonyl)-1H-pyrazol-4-yl)pyrimidin-4-yl)amino)-5-((4-methylpiperazin-1-yl)methyl)-[2,3′-bipyridin]-4′-yl)amino)-1-methylcyclohexan-1-ol] | 0.7 nM | 0.2 nM | 0.1 nM | 0.3 nM | 0.1 nM | 167 nM | 1 nM | 1.9 nM | 0.2 nM | –
CN1CCN(Cc2ccc(-c3cnc(Nc4ccnc(-c5cnn(S(=O)(=O)C6CC6)c5)n4)cc3N[C@H]3CC[C@](O)(CO)CC3)nc2)CC1 [Example 11, (1s,4s)-4-((6′-((2-(1-(Cyclopropylsulfonyl)-1H-pyrazol-4-yl)pyrimidin-4-yl)amino)-5-((4-methylpiperazin-1-yl)methyl)-[2,3′-bipyridin]-4′-yl)amino)-1-(hydroxymethyl)cyclohexan-1-ol] | 0.4 nM | 0.2 nM | 0.1 nM | 0.2 nM | 0.1 nM | 586 nM | 1.4 nM | 2.1 nM | 0.4 nM | –
Cc1ccnc(-c2cnc(Nc3ccnc(-c4cnn(S(=O)(=O)C5CC5)c4)n3)cc2N[C@H]2CC[C@@](C)(O)CC2)c1 [Example 12, (1s,4s)-4-((6′-((2-(1-(Cyclopropylsulfonyl)-1H-pyrazol-4-yl)pyrimidin-4-yl)amino)-4-methyl-[2,3′-bipyridin]-4′-yl)amino)-1-methylcyclohexan-1-ol] | 1 nM | 0.4 nM | 0.4 nM | 0.6 nM | 0.2 nM | 2690 nM | 3.6 nM | 11.5 nM | – | –
CC(=O)c1cccc(-c2cnc(Nc3ccnc(-c4cnn(S(=O)(=O)C5CC5)c4)n3)cc2N[C@H]2CC[C@@](C)(O)CC2)n1 [Example 18, 1-(6′-((2-(1-(Cyclopropylsulfonyl)-1H-pyrazol-4-yl)pyrimidin-4-yl)amino)-4′-(((1s,4s)-4-hydroxy-4-methylcyclohexyl)amino)-[2,3′-bipyridin]-6-yl)ethan-1-one] | 8.7 nM | – | 0.7 nM | 3.1 nM | – | > 10000 nM | – | 113 nM | – | –
O=S(=O)(C1CC1)n1cc(-c2nccc(Nc3cc(N[C@H]4CC[C@@H](NCCF)CC4)c(-c4ccc(CO)cn4)cn3)n2)cn1 [Example 21, (6′-((2-(1-(Cyclopropylsulfonyl)-1H-pyrazol-4-yl)pyrimidin-4-yl)amino)-4′-(((1s,4s)-4-((2-fluoroethyl)amino)cyclohexyl)amino)-[2,3′-bipyridin]-5-yl)methanol] | 1.2 nM | 0.5 nM | 0.3 nM | 0.6 nM | 0.3 nM | 5570 nM | 6.3 nM | 11.6 nM | 1 nM | 0.3 nM
O=S(=O)(C1CC1)n1cc(-c2nccc(Nc3cc(N[C@H]4CC[C@@H](CO)CC4)c(-c4ccc(CO)cn4)cn3)n2)cn1 [Example 22, (6′-((2-(1-(Cyclopropylsulfonyl)-1H-pyrazol-4-yl)pyrimidin-4-yl)amino)-4′-(((1s,4s)-4-(hydroxymethyl)cyclohexyl)amino)-[2,3′-bipyridin]-5-yl)methanol] | 0.2 nM | 0.1 nM | 0.3 nM | 0.2 nM | 0.2 nM | 165 nM | 0.3 nM | 1.1 nM | 0.2 nM | 0.3 nM
CC(O)c1cccc(-c2cnc(Nc3ccnc(-c4cnn(S(=O)(=O)C5CC5)c4)n3)cc2NC2CCC(C)(O)CC2)n1 (stereo not drawn) [Example 23, (1s,4s)-4-((6′-((2-(1-(Cyclopropylsulfonyl)-1H-pyrazol-4-yl)pyrimidin-4-yl)amino)-6-(1-hydroxyethyl)-[2,3′-bipyridin]-4′-yl)amino)-1-methylcyclohexan-1-ol] | 5 nM | 1.8 nM | 1.1 nM | 1 nM | – | > 10000 nM | 13.7 nM | 6.2 nM | 0.6 nM | 1.6 nM
CC(C)(O)[C@H]1CC[C@@H](Nc2cc(Nc3ccnc(-c4cnn(S(=O)(=O)C5CC5)c4)n3)ncc2-c2ccc(CO)cn2)CC1 [Example 24, 2-((1s,4s)-4-((6′-((2-(1-(Cyclopropylsulfonyl)-1H-pyrazol-4-yl)pyrimidin-4-yl)amino)-5-(hydroxymethyl)-[2,3′-bipyridin]-4′-yl)amino)cyclohexyl)propan-2-ol] | 2.2 nM | 1 nM | 8.4 nM | 0.9 nM | – | > 10000 nM | 2.8 nM | 3.5 nM | 0.7 nM | 1 nM
CC(C)(O)[C@H]1CC[C@@H](Nc2cc(Nc3ccnc(-c4cnn(S(=O)(=O)C5CC5)c4)n3)ncc2-c2ccc(CN3CCOCC3)cn2)CC1 [Example 25, 2-((1s,4s)-4-((6′-((2-(1-(Cyclopropylsulfonyl)-1H-pyrazol-4-yl)pyrimidin-4-yl)amino)-5-(morpholinomethyl)-[2,3′-bipyridin]-4′-yl)amino)cyclohexyl)propan-2-ol] | 0.5 nM | 0.5 nM | 1.1 nM | 1.2 nM | 0.8 nM | 1830 nM | 1.9 nM | 2 nM | 0.3 nM | 1 nM
CN(C)Cc1ccc(-c2cnc(Nc3ccnc(-c4cnn(S(=O)(=O)C5CC5)c4)n3)cc2N[C@H]2CC[C@@H](C(C)(C)O)CC2)nc1 [Example 26, 2-((1s,4s)-4-((6′-((2-(1-(Cyclopropylsulfonyl)-1H-pyrazol-4-yl)pyrimidin-4-yl)amino)-5-((dimethylamino)methyl)-[2,3′-bipyridin]-4′-yl)amino)cyclohexyl)propan-2-ol] | 0.2 nM | 0.2 nM | 0.4 nM | 0.4 nM | 0.2 nM | 107 nM | 0.9 nM | 0.7 nM | 0.1 nM | 0.4 nM
C[C@]1(O)CC[C@@H](Nc2cc(Nc3ccnc(-c4cnn(S(=O)(=O)C5CC5)c4)n3)ncc2-c2cccc(CO)n2)CC1 [Example 27, (1s,4s)-4-((6′-((2-(1-(Cyclopropylsulfonyl)-1H-pyrazol-4-yl)pyrimidin-4-yl)amino)-6-(hydroxymethyl)-[2,3′-bipyridin]-4′-yl)amino)-1-methylcyclohexan-1-ol] | 0.3 nM | 0.1 nM | 0.3 nM | 0.4 nM | 0.2 nM | 370 nM | 1.7 nM | 1.6 nM | 0.1 nM | 0.3 nM
